Earlier results in patent US20020004528A1, “Method for the treatment of insomnia” (priority 1998, published 2002).

Details: one study mentioned in U.S. Pat. No. 5,510,381 (use of gabapentin to treat mania)

## 1-(aminomethyl)-cyclohexane acetic acid [gabapentin]
  effect on delta-wave (deep) sleep: enhance delta-wave (deep) sleep
